Test results as given in ChEMBL document CHEMBL3526097, “Preclinical disposition of GDC-0973 and prospective and retrospective analysis of human dose and efficacy predictions” (Drug Metab Dispos, 2012).

Experiments:
Liver [1] = assay: Drug uptake in Long-Evans rat liver at 30 mg/kg, po after 2 hrs by autoradiography; format: ADME, organism-based; parameters: dose 30 mg/kg, route oral; conditions: in vivo
Large intestine = assay: Drug uptake in Long-Evans rat large intestine at 30 mg/kg, po after 2 hrs by autoradiography; format: ADME, organism-based; parameters: dose 30 mg/kg, route oral; conditions: in vivo
Lung = assay: Drug uptake in Long-Evans rat lung at 30 mg/kg, po after 2 hrs by autoradiography; format: ADME, organism-based; parameters: dose 30 mg/kg, route oral; conditions: in vivo
Adrenal gland = assay: Drug uptake in Long-Evans rat adrenal gland at 30 mg/kg, po after 2 hrs by autoradiography; format: ADME, organism-based; parameters: dose 30 mg/kg, route oral; conditions: in vivo
[2] = Drug uptake in Long-Evans rat lacrimal gland at 30 mg/kg, po after 2 hrs by autoradiography; format: ADME, organism-based, Lachrymal gland; parameters: dose 30 mg/kg, route oral; conditions: in vivo
Cerebrum = assay: Drug uptake in Long-Evans rat cerebrum at 30 mg/kg, po after 4 hrs by autoradiography; format: ADME, organism-based; parameters: dose 30 mg/kg, route oral; conditions: in vivo
Liver [3] = assay: Drug uptake in Long-Evans rat liver at 30 mg/kg, po after 72 hrs by autoradiography; format: ADME, organism-based; parameters: dose 30 mg/kg, route oral; conditions: in vivo
Kidney = assay: Drug uptake in Long-Evans rat kidney at 30 mg/kg, po after 72 hrs by autoradiography; format: ADME, organism-based; parameters: dose 30 mg/kg, route oral; conditions: in vivo
Intestine = assay: Drug uptake in Long-Evans rat intestine at 30 mg/kg, po after 72 hrs by autoradiography; format: ADME, organism-based; parameters: dose 30 mg/kg, route oral; conditions: in vivo
[4] = Drug uptake in Long-Evans rat melanin containing tissue at 30 mg/kg, po after 72 hrs by autoradiography; format: ADME, organism-based; parameters: dose 30 mg/kg, route oral; conditions: in vivo
[5] = Drug excretion in bile duct-intact Sprague-Dawley rat feces at 30 mg/kg, po after 48 hrs by liquid scintillation counting; format: ADME, organism-based; parameters: dose 30 mg/kg, route oral; conditions: in vivo
[6] = Drug excretion in bile duct-intact Sprague-Dawley rat urine at 30 mg/kg, po after 48 hrs by liquid scintillation counting; format: ADME, organism-based; parameters: dose 30 mg/kg, route oral; conditions: in vivo
[7] = Drug excretion in bile duct-cannulated Sprague-Dawley rat bile at 30 mg/kg, po after 48 hrs by liquid scintillation counting; format: ADME, organism-based; parameters: dose 30 mg/kg, route oral; conditions: in vivo
[8] = Drug excretion in bile duct-intact Beagle dog feces at 30 mg/kg, po after 72 hrs by liquid scintillation counting; format: ADME, organism-based, Canis lupus familiaris; parameters: dose 30 mg/kg, route oral; conditions: in vivo
[9] = Drug excretion in bile duct-intact Beagle dog urine at 30 mg/kg, po after 72 hrs by liquid scintillation counting; format: ADME, organism-based, Canis lupus familiaris; parameters: dose 30 mg/kg, route oral; conditions: in vivo
[10] = Drug excretion in bile duct-cannulated Beagle dog bile at 30 mg/kg, po after 168 hrs by liquid scintillation counting; format: ADME, organism-based, Canis lupus familiaris; parameters: dose 30 mg/kg, route oral; conditions: in vivo
[11] = Ratio of drug level in blood to plasma in CD1 mouse at 10 uM after 30 mins; format: ADME
[12] = Ratio of drug level in blood to plasma in Sprague-Dawley rat at 1 uM after 30 mins; format: ADME
[13] = Ratio of drug level in blood to plasma in Sprague-Dawley rat at 5 uM after 30 mins; format: ADME
[14] = Ratio of drug level in blood to plasma in Sprague-Dawley rat at 10 uM after 30 mins; format: ADME
[15] = Ratio of drug level in blood to plasma in beagle dog at 1 uM after 30 mins; format: ADME, Canis lupus familiaris
[16] = Ratio of drug level in blood to plasma in beagle dog at 5 uM after 30 mins; format: ADME, Canis lupus familiaris
[17] = Ratio of drug level in blood to plasma in beagle dog at 10 uM after 30 mins; format: ADME, Canis lupus familiaris
[18] = Ratio of drug level in blood to plasma in cynomolgus monkey at 1 uM after 30 mins; format: ADME, Macaca fascicularis
[19] = Ratio of drug level in blood to plasma in cynomolgus monkey at 5 uM after 30 mins; format: ADME, Macaca fascicularis
[20] = Ratio of drug level in blood to plasma in cynomolgus monkey at 10 uM after 30 mins; format: ADME, Macaca fascicularis
[21] = Ratio of drug level in blood to plasma in human at 1 uM after 30 mins; format: ADME
[22] = Ratio of drug level in blood to plasma in human at 5 uM after 30 mins; format: ADME
[23] = Ratio of drug level in blood to plasma in human at 10 uM after 30 mins; format: ADME
[24] = Percentage unbound in mouse plasma at 1 uM after 5 hrs by equilibrium dialysis; format: ADME, cell-free
[25] = Percentage unbound in mouse plasma at 5 uM after 5 hrs by equilibrium dialysis; format: ADME, cell-free
[26] = Percentage unbound in mouse plasma at 10 uM after 5 hrs by equilibrium dialysis; format: ADME, cell-free
[27] = Percentage unbound in rat plasma at 1 uM after 5 hrs by equilibrium dialysis; format: ADME, cell-free
[28] = Percentage unbound in rat plasma at 5 uM after 5 hrs by equilibrium dialysis; format: ADME, cell-free
[29] = Percentage unbound in rat plasma at 10 uM after 5 hrs by equilibrium dialysis; format: ADME, cell-free
[30] = Percentage unbound in dog plasma at 1 uM after 5 hrs by equilibrium dialysis; format: ADME, cell-free, Canis lupus familiaris
[31] = Percentage unbound in dog plasma at 5 uM after 5 hrs by equilibrium dialysis; format: ADME, cell-free, Canis lupus familiaris
[32] = Percentage unbound in dog plasma at 10 uM after 5 hrs by equilibrium dialysis; format: ADME, cell-free, Canis lupus familiaris
[33] = Percentage unbound in cynomolgus monkey plasma at 1 uM after 5 hrs by equilibrium dialysis; format: ADME, cell-free, Macaca fascicularis
[34] = Percentage unbound in cynomolgus monkey plasma at 5 uM after 5 hrs by equilibrium dialysis; format: ADME, cell-free, Macaca fascicularis
[35] = Percentage unbound in cynomolgus monkey plasma at 10 uM after 5 hrs by equilibrium dialysis; format: ADME, cell-free, Macaca fascicularis
[36] = Percentage unbound in human plasma at 1 uM after 5 hrs by equilibrium dialysis; format: ADME, cell-free
[37] = Percentage unbound in human plasma at 5 uM after 5 hrs by equilibrium dialysis; format: ADME, cell-free
[38] = Percentage unbound in human plasma at 10 uM after 5 hrs by equilibrium dialysis; format: ADME, cell-free
[39] = Percentage unbound in human alpha-1-acid glycoprotein at 1 uM after 5 hrs by equilibrium dialysis; format: ADME
[40] = Percentage unbound in human alpha-1-acid glycoprotein at 5 uM after 5 hrs by equilibrium dialysis; format: ADME
[41] = Percentage unbound in human alpha-1-acid glycoprotein at 10 uM after 5 hrs by equilibrium dialysis; format: ADME
Albumin [42] = biological target: T1, Albumin (Homo sapiens, UniProt P02768); assay: Percentage unbound in human serum albumin at 1 uM after 5 hrs by equilibrium dialysis; format: ADME
T1 sequence (P02768 whole entry): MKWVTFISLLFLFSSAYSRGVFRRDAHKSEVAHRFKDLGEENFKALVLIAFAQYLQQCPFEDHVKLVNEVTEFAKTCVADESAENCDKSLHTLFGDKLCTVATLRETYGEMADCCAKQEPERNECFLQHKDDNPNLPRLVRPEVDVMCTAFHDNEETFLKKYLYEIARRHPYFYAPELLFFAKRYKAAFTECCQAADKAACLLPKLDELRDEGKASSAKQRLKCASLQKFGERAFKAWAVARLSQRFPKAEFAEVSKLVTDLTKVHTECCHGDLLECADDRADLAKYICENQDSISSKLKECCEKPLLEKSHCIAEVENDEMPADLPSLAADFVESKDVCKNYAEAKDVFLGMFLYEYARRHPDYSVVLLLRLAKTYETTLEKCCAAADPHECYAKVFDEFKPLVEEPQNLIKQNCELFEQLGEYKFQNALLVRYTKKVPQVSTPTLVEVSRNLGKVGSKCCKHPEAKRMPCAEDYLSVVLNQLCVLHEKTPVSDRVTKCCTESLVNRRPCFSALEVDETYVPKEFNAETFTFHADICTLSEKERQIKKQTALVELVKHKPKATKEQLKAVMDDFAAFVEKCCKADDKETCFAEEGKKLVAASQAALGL

Albumin [43] = biological target: T1, Albumin; assay: Percentage unbound in human serum albumin at 5 uM after 5 hrs by equilibrium dialysis; format: ADME
Albumin [44] = biological target: T1, Albumin; assay: Percentage unbound in human serum albumin at 10 uM after 5 hrs by equilibrium dialysis; format: ADME
[45] = Ratio of drug level in blood to plasma in CD1 mouse at 1 uM after 30 mins; format: ADME
[46] = Ratio of drug level in blood to plasma in CD1 mouse at 5 uM after 30 mins; format: ADME
[47] = Efflux ratio of permeability from […] side in MDCK1 cells expressing MDR1 at 10 uM after 2 hrs by LC-MS/MS analysis; format: ADME, cell-based, Canis lupus familiaris; conditions: dog, mdck1, 2 h

SMILES: O=C(c1ccc(F)c(F)c1N[14c]1[14cH][14cH][14c](I)[14cH][14c]1F)N1CC(O)([C@@H]2CCCCN2)C1
- Drug uptake (Liver [1]): Active
- Drug uptake (Large intestine): Active
- Drug uptake (Lung): Active
- Drug uptake (Adrenal gland): Active
- Drug uptake [2]: Active
- Drug uptake (Cerebrum): Active
- Drug uptake (Liver [3]): Active
- Drug uptake (Kidney): Active
- Drug uptake (Intestine): Active
- Drug uptake [4]: Active
- Drug excretion [5]: 85%
- Drug excretion [6]: 2.2%
- Drug excretion [7]: 74%
- Drug excretion [8]: 80%
- Drug excretion [9]: 6.3%
- Drug excretion [10]: 65%
- blood plasma ratio at 0.5 h, 10 µM [11]: 1.27
- blood plasma ratio at 0.5 h, 1 µM [12]: 1.36
- blood plasma ratio at 0.5 h, 5 µM [13]: 1.37
- blood plasma ratio at 0.5 h, 10 µM [14]: 1.51
- blood plasma ratio at 0.5 h, 1 µM [15]: 0.632
- blood plasma ratio at 0.5 h, 5 µM [16]: 0.752
- blood plasma ratio at 0.5 h, 10 µM [17]: 0.936
- blood plasma ratio at 0.5 h, 1 µM [18]: 1.57
- blood plasma ratio at 0.5 h, 5 µM [19]: 1.64
- blood plasma ratio at 0.5 h, 10 µM [20]: 1.82
- blood plasma ratio at 0.5 h, 1 µM [21]: 0.933
- blood plasma ratio at 0.5 h, 5 µM [22]: 0.945
- blood plasma ratio at 0.5 h, 10 µM [23]: 1.05
- fraction unbound at 5 h, 1 µM [24]: 0.041
- fraction unbound at 5 h, 5 µM [25]: 0.034
- fraction unbound at 5 h, 10 µM [26]: 0.033
- fraction unbound at 5 h, 1 µM [27]: 0.028
- fraction unbound at 5 h, 5 µM [28]: 0.035
- fraction unbound at 5 h, 10 µM [29]: 0.037
- fraction unbound at 5 h, 1 µM [30]: 0.007
- fraction unbound at 5 h, 5 µM [31]: 0.012
- fraction unbound at 5 h, 10 µM [32]: 0.014
- fraction unbound at 5 h, 1 µM [33]: 0.045
- fraction unbound at 5 h, 5 µM [34]: 0.044
- fraction unbound at 5 h, 10 µM [35]: 0.048
- fraction unbound at 5 h, 1 µM [36]: 0.052
- fraction unbound at 5 h, 5 µM [37]: 0.065
- fraction unbound at 5 h, 10 µM [38]: 0.058
- fraction unbound at 5 h, 1 µM [39]: 0.044
- fraction unbound at 5 h, 5 µM [40]: 0.042
- fraction unbound at 5 h, 10 µM [41]: 0.053
- fraction unbound at 5 h, 1 µM (Albumin [42]): 0.469
- fraction unbound at 5 h, 5 µM (Albumin [43]): 0.408
- fraction unbound at 5 h, 10 µM (Albumin [44]): 0.408
- blood plasma ratio at 0.5 h, 1 µM [45]: 1.16
- blood plasma ratio at 0.5 h, 5 µM [46]: 1.19

SMILES: C[C@H]1O[C@@H](O[C@H]2[C@@H](O)C[C@H](O[C@H]3[C@@H](O)C[C@H](O[C@H]4CC[C@@]5(C)[C@H](CC[C@@H]6[C@@H]5C[C@@H](O)[C@]5(C)[C@@H](C7=CC(=O)OC7)CC[C@]65O)C4)O[C@@H]3C)O[C@@H]2C)C[C@H](O)[C@@H]1O [DIGOXIN]
- Ratio [47]: 72
